{"source": "patent US20120035265A1", "about": "“COMPOSITIONS, METHODS, AND DEVICES FOR THE TREATMENT OF DYSMENORRHEA” (MediciNova, Inc., priority 2010, published 2012)", "key": {"[1]": {"system": "uterine muscle isolated from pregnant rats", "experiment": "Spontaneous contractions of uterine muscle isolated from pregnant rats (organ bath)", "format": "cell-based", "conditions": "pregnant rat uterine muscle, mean ± standard error, 10 samples", "procedure": "The experimental operation of this study was as reported by T. Kawarabayashi et al.^1 After each SD-strain rat on Day 21 of pregnancy were exsanguinated to death, the uterus was isolated to prepare up to 8 myometrial strips (about 4 mm×10 mm) in the direction of the longitudinal muscle, with the adhesion to the placenta being avoided.\nEach myometrial strip was suspended in an organ bath containing 10 mL of a Locke-Ringer solution at 37° C. (aerated with 95% O2+5% CO2 gas) with a load of about 1.0 g. After the amplitude and frequency of the muscular spontaneous contractions became stable, distilled water was added. Five minutes later, the test, control, or positive control substance was added cumulatively with intervals of 5 minutes. The myometrial contractile force was delivered to a strain pressure amplifier through a force displacement transducer and recorded on a Rectigraph.\nConsidering the sum of the uterine contraction during 5 minutes after the addition of distilled water as 100%, the response rate to each concentration of the test, control, or positive control substance was calculated from the sum of the uterine contraction after each was added. Variable points (peaks) with amplitude (tension) of 0.2 g or lower were excluded from analysis. Samples showing any of the following events were not used for the study or excluded from analysis.\nMicrosoft® Excel 2000 (Microsoft Corp.) was used to sum up and analyze data and prepare tables and figures. Using a concentration-response curve obtained for each sample (X axis: log value of the concentration of the drug added, Y axis: response rate), a negative log value (pD2) of the concentration that inhibited the uterine contraction by 50% (EC50) was calculated from a straight line that connects the 2 concentrations above and below 50%, and converted to EC50."}, "[2]": {"system": "uterine activity of anesthetized pregnant rats", "experiment": "Uterine motility of anesthetized pregnant rats (balloon method)", "format": "in vivo, rat", "procedure": "Rats were anesthetized with urethane, and experiments were conducted based on balloon method. Uterine activity and mean blood pressure of dam were led to a pressure amplifier via a pressure transducer. As for heart rate, pulse waves were led to tachometer. Recti-graphs were used for recording. The test substance, control substance, or positive control substance was administered intravenously and cumulatively every 15 minutes, while doses were increased gradually."}, "[3]": {"system": "uterine muscles isolated from pregnant rabbits", "experiment": "Spontaneous contractions of isolated uterine muscles of pregnant rabbits (organ bath)", "format": "cell-based, rabbit", "procedure": "Uterine muscles of pregnant rabbits were isolated, and experiments were conducted based on organ-bath method. After specimens of uterine muscles were suspended and spontaneous contractions was stabilized, the test substance, control substance or positive control substance was administered every 10 min, while doses were increased gradually. Efficacy of drugs was evaluated by comparing the sum of uterine contraction for 10 min before and after administration of drugs, defining the former as 100%."}, "[4]": {"system": "women with primary dysmenorrhea", "experiment": "Myometrial activity, uterine blood flow and lower abdominal pain in women with primary dysmenorrhea (intravenous MN-221)", "format": "in vivo, human", "procedure": "Myometrial activity and uterine blood flow is recorded in a group of women, aged 16 to 39 years. All have regular cycles of 25 to 32 days. They suffer regularly from menstrual pain. All are so disabled by the condition that they have to abstain from work for one to three days a month, even if they use non-narcotic analgesics. At least during the first menstrual day, all have a continuous lower abdominal pain, which varies in intensity; most of them also complain of symptoms such as nausea and vomiting. The symptoms during the recordings conform to those experienced during previous menstruations.\nIn the menstrual cycle preceding the investigation, all women have biphasic basal body temperature recordings, and plasma oestradiol and progesterone concentrations which are higher in the middle of the luteal phase than on the first menstrual day. Recordings are made; each begin within 24 hours of the onset of menstruation lasting for more than three hours.\nMyometrial activity is recorded as changes in intrauterine pressure by a microtransducer catheter. The transducer is connected to an amplifier and a potentiometer recorder. Uterine blood flow is recorded by a technique based on measuring thermodilution from a heated thermistor to blood flow in the surrounding tissue. The thermistor is placed in contact with the endometrium of the fundus and, consequently, the recordings mainly reflect the blood flow at that site. The thermistor and the pressure transducer are inserted through the cervical canal into the uterus. The receptors are kept in position by the rigidity of the transducer catheter and by use of sterile paste around the catheters in the vagina.\nThe patients are asked to report all symptoms during recordings, including changes in character and intensity of the menstrual pain. MN-221 is given as a single bolus intravenous injection of 0.30 mg, 0.60 mg, or 0.90 mg. Before and after the administration of MN-221, pulse rate and arterial blood pressure (measured by auscultation) are registered at 5-minute intervals."}, "[5]": {"system": "women with severe primary dysmenorrhea", "experiment": "Transdermal administration of MN-221 in women with severe primary dysmenorrhea (double-blind cross-over trial)", "format": "in vivo, human", "procedure": "The study is conducted in women, aged 15-39 years. Some of them are nulliparous and some are parous. All have regular 25-32 day cycles. They have all suffered from severe dysmenorrhea for more than one year. All the women are incapacitated for 1-2 days every month. During the first menstrual day they have continuous low abdominal pain of varying severity and in some women it is accompanied by nausea and vomiting.\nAll the women are informed and give their consent before the trial is started. The study is performed as a double-blind cross-over trial in which the patients are given, in random order, MN-221 transdermal patches during one menstrual period and placebo patches of identical appearance during the next period. The patients return to the hospital after the end of each menstrual flow and their dysmenorrheic symptoms are assessed. The therapeutic effect is also assessed and graded as none, weak, and moderate, over to good and very good. All women in the study have signs of ovulation—mid-cycle temperature rise—in the menstrual cycle preceding the trial. The MN-221 or the placebo is given as a five day transdermal patch during menstrual pains. MN-221 is administered as a dose in a range of about 0.02 mg/kg to 1.5 mg/Kg. The volume of the menstrual blood loss is calculated from the hemoglobin content of all the sanitary towels used by the patient and delivered to the department."}, "[6]": {"conditions": "inhibition of uterine motility, anesthetized pregnant rats"}, "[7]": {"conditions": "single bolus intravenous injection of 0.30 mg, 0.60 mg, or 0.90 mg"}}, "note": "Where two headings read alike, the source gives them in different places."}
{"smiles": "CN(C)C(=O)COc1ccc2c(c1)C[C@@H](NC[C@H](O)c1ccc(O)c(CCO)c1)CC2", "note": "[MN-221, (−)-bis(2-{[(2S)-2-({(2R)-2-hydroxy-2-[4-hydroxy-3-(2-hydroxyethyl)phenyl]ethyl}amino)-1,2,3,4-tetrahydronaphthalen-7-yl]oxy}-N,N-dimethyl-acetamide) monosulfate]", "values": [{"measurement": "EC50", "setting": "[1]; read-out: EC50", "result": "1.01 ± 0.27", "unit": "nM"}, {"measurement": "EC50", "setting": "[1]; read-out: pD2 (converted)", "result": 0.692, "unit": "nM"}, {"measurement": "inhibition of uterine motility", "setting": "[2]; anesthetized pregnant rats, intravenous cumulative dosing", "result": "inhibited uterine motility dose-dependently"}, {"measurement": "potency relative to HSR-81", "setting": "[2]; [6]", "result": "approximately 4 times"}, {"measurement": "potency relative to ritodrine", "setting": "[2]; [6]", "result": "approximately 400 times"}, {"measurement": "potency relative to terbutaline", "setting": "[2]; [6]", "result": "approximately 5.5 times"}, {"measurement": "ED30 values", "setting": "[2]; uterine motility, intravenous cumulative dosing every 15 minutes, urethane-anesthetized pregnant rats", "result": 0.13, "unit": "µg/kg/min"}, {"measurement": "EC50", "setting": "[3]; Oryctolagus cuniculus, spontaneous contractions, pregnant rabbit uterine muscles, read-out: pD2 values (converted)", "result": 1.91, "unit": "nM"}, {"measurement": "inhibitory effect against oxytocin-induced contractions of isolated uterine muscles", "setting": "[3]; as worded in Example 6 (spontaneous contraction study)", "result": "demonstrated inhibitory effect"}, {"measurement": "inhibitory effect against spontaneous contractions of uterine muscles, comparison", "setting": "[3]; pregnant rabbit uterine muscles", "result": "clearly stronger than that of HSR-81, ritodrine and terbutaline"}, {"measurement": "pain relief", "setting": "[4]; after injection or infusion", "result": "pain relief within one minute after injection"}, {"measurement": "increase in heart rate, blood pressure, palpitations, tremors, and/or flushes", "setting": "[4]; intravenous, all subjects", "result": "substantially no increase in heart rate, blood pressure, palpitations, tremors, and/or flushes"}, {"measurement": "duration of effect", "setting": "[4]; single bolus intravenous injection", "result": "lasts for few hours"}, {"measurement": "local uterine blood flow", "setting": "[4]; [7]", "result": "generally increases"}, {"measurement": "myometrial activity", "setting": "[4]; [7]", "result": "decreases the myometrial activity"}, {"measurement": "therapeutic response (relief) compared to placebo", "setting": "[5]; five day transdermal patch, about 0.02 mg/kg to 1.5 mg/Kg", "result": "positive response with relief in women as compared to placebo"}, {"measurement": "increase in heart rate, blood pressure, palpitations, tremors, and/or flushes", "setting": "[5]; transdermal patch, all subjects", "result": "substantially no increase in heart rate, blood pressure, palpitations, tremors, and/or flushes"}]}
